Measurements from US5861476A, “Peptides and compounds that bind to the IL-1 receptor” (Affymax Technologies N.V., priority 1995, dated 1999).
Where two headings read alike, the source gives them in different places. Where a SMILES comes first, the peptide text is derived from it. Where no end group is shown, it is not given here. [ ]: non-standard residue; d: D form. pY = N[C@@H](Cc1ccc(OP(=O)(O)O)cc1)C(=O)O; 1Nal = N[C@@H](Cc1cccc2ccccc12)C(=O)O; Aze = O=C(O)[C@@H]1CCN1

How the values were obtained:
IL-1RtI = molecular target: T1, IL-1RtI (Homo sapiens, UniProt P14778); experiment: Inhibition of 125I-IL-1α binding to IL-1RtI (Example 3)
T1 construct: made in house; host or cells: recombinant host cells (one form soluble from baculovirus transformed host cells; another PIG-tailed and cleaved from the cell surface)
T1 sequence (P14778 18-336): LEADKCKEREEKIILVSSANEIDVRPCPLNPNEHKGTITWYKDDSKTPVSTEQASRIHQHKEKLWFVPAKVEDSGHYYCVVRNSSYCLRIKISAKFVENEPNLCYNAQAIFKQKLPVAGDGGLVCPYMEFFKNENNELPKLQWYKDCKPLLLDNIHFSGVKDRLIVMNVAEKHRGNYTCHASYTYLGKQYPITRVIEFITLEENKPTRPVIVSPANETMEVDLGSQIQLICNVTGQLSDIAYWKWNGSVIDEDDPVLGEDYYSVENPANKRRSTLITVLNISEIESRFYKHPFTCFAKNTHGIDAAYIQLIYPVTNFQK
How it was run: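 Competition with 90 pM 125I-IL-1α was run in duplicate for 2 h at 4 °C in HEPES-buffered RPMI with 1% BSA, pH 7.2-7.3, against either antibody-captured truncated receptor or cells with full-length IL-1RtI. Gamma counting of NaOH-detached material gave approximate IC50; high-affinity peptides used 24-well format.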

[1] = molecular target: T2, IL-1 induced down-regulation of the epidermal growth factor (EGF) receptor in normal human dermal fibroblasts (NHDF) (Homo sapiens, UniProt P14778); experiment: Epidermal Growth Factor Receptor Down Regulation Assay; format: cell-based; details: 37° C., in the presence of IL-1α, 125I-labeled EGF binding, read-out: IC50 (approximate concentration which blocked 50% of the IL-1 induced down regulation of the EGF receptor)
T2 sequence (P14778 18-569): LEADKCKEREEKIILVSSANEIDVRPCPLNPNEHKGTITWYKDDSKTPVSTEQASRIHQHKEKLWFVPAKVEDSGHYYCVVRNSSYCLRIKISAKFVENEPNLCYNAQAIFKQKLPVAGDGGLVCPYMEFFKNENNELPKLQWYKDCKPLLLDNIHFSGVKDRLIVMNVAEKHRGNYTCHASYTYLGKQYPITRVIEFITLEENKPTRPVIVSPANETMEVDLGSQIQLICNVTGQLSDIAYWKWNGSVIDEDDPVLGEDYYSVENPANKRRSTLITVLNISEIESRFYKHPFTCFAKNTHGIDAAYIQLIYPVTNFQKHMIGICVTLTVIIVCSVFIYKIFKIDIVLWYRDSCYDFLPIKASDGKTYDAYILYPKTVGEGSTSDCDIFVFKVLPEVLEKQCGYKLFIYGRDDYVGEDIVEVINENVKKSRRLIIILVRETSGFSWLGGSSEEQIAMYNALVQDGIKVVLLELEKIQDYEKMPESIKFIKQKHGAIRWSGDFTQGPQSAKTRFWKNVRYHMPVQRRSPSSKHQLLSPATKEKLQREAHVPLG
Description: The protocol set forth in Bird and Saklatvala (1989) J. Immunol. […] This assay examines the effect of the compounds of the invention on the IL-1 induced down-regulation of the epidermal growth factor (EGF) receptor as measured by the binding of ^125 I-labeled EGF to its receptor in normal human dermal fibroblasts (NHDF). […] The table below lists the approximate concentration of representative peptides of the invention which blocked 50% of the IL-1 induced down regulation of the EGF receptor. IC50 values are indicated symbolically by the symbols "-", "+", and "++". […] Those peptides which give IC50 values of less than or equal to 100 μM are given a "+", while those which give IC50 values of 500 nM or less are indicated with a "++". Those peptides which give IC50 values at or near the cutoff point for a particular symbol are indicated with a hybrid, e.g. "±". Those peptides for which IC50 values were not determined are listed as "N.D".

[2] = molecular target: T3, IL-1 induced E-selectin in HUVEC cells (Homo sapiens, UniProt P14778); experiment: Peptide Effects on IL-1 Induced E-Selectin (HUVEC Cells); format: cell-based; details: 120 pM IL-1α, read-out: IC50 (concentration required to inhibit 50% of IL-1 induced E-selectin expression)
T3 sequence (P14778 18-569): T2 sequence (P14778 18-569)
Experimental: The compounds of the present invention were assayed for their ability to inhibit the expression of IL-1 induced E-selectin in HUVEC cells (human umbilical vein endothelial cells). HUVEC cells are grown to confluency in the wells of a 24-well microtiter plate. The compounds were serially diluted in DMEM/F12+0.1% BSA ("SFM"with 120 pM IL-1α. The cells were washed and then incubated with IL-1α and the compound to be tested for 15 minutes. The cells were again washed and incubated in SFM for 4 hours. The cells were washed and incubated with anti-selectin antibody for 30 minutes. Following antibody incubation, the cells were incubated with ^125 I Protein A and washed. The amount of ^125 I bound to the cells was then determined. The concentration of compounds required to inhibit 50% of IL-1 induced E-selectin expression is shown below.

[3] = inhibition of 125I-IL-1α binding to IL-1RtI, soluble peptide unless marked *

Row | Molecule | IC50 (IL-1RtI; [3]) | IC50 [1] | IC50 [2] | IC50 (IL-1RtI)
1 | CC(=O)N[C@@H](Cc1ccccc1)C(=O)N[C@@H](CCC(=O)O)C(=O)N[C@@H](Cc1c[nH]c2ccccc12)C(=O)N[C@H](C(=O)N1CCC[C@H]1C(=O)NCC(=O)N[C@@H](Cc1c[nH]c2ccccc12)C(=O)N[C@@H](Cc1ccc(O)cc1)C(=O)N[C@@H](CCC(N)=O)C(=O)N1CC[C@H]1C(=O)N[C@@H](Cc1ccc(O)cc1)C(N)=O)[C@@H](C)O [AcFEWTPGWYQJY--NH2] (Ac-FEWTPGWYQ[Aze]Y-NH2) | ≤ 500 nM | 500 nM | ≤ 500 nM | –
2 | CC(=O)N[C@@H](Cc1ccccc1)C(=O)N[C@@H](CCC(=O)O)C(=O)N[C@@H](Cc1c[nH]c2ccccc12)C(=O)N[C@H](C(=O)N1CCC[C@H]1C(=O)NCC(=O)N[C@@H](Cc1ccc(O)cc1)C(=O)N[C@@H](Cc1c[nH]c2ccccc12)C(=O)N[C@@H](CCC(N)=O)C(=O)N1CC[C@H]1C(=O)N[C@@H](Cc1ccc(O)cc1)C(N)=O)[C@@H](C)O [AcFEWTPGYWQJY--NH2] (Ac-FEWTPGYWQ[Aze]Y-NH2) | ≤ 500 nM | ≤ 100000 nM | ≤ 500 nM | –
3 | CC(=O)N[C@@H](Cc1ccccc1)C(=O)N[C@@H](CCC(=O)O)C(=O)N[C@@H](Cc1c[nH]c2ccccc12)C(=O)N[C@H](C(=O)N1CCC[C@H]1C(=O)NCC(=O)N[C@@H](Cc1ccc(O)cc1)C(=O)N[C@@H](Cc1ccc(O)cc1)C(=O)N[C@@H](CCC(N)=O)C(=O)N1CC[C@H]1C(=O)N[C@@H](Cc1ccc(O)cc1)C(N)=O)[C@@H](C)O [AcFEWTPGYYQJY--NH2] (Ac-FEWTPGYYQ[Aze]Y-NH2) | – | 500 nM | ≤ 500 nM | –
4 | CC(=O)N[C@@H](Cc1ccccc1)C(=O)N[C@@H](CCC(=O)O)C(=O)N[C@@H](Cc1c[nH]c2ccccc12)C(=O)N[C@H](C(=O)N1CCC[C@H]1C(=O)N[C@H](C)C(=O)N[C@@H](Cc1c[nH]c2ccccc12)C(=O)N[C@@H](Cc1ccc(O)cc1)C(=O)N[C@@H](CCC(N)=O)C(=O)N1CC[C@H]1C(=O)N[C@@H](Cc1ccc(O)cc1)C(N)=O)[C@@H](C)O [AcFEWTPaWYQJY--NH2] (Ac-FEWTP[dA]WYQ[Aze]Y-NH2) | – | ≤ 100000 nM | ≤ 500 nM | –
5 | CC(=O)N[C@@H](Cc1ccccc1)C(=O)N[C@@H](CCC(=O)O)C(=O)N[C@@H](Cc1c[nH]c2ccccc12)C(=O)N[C@H](C(=O)N1CCC[C@H]1C(=O)N[C@H](C)C(=O)N[C@@H](Cc1ccc(O)cc1)C(=O)N[C@@H](Cc1c[nH]c2ccccc12)C(=O)N[C@@H](CCC(N)=O)C(=O)N1CC[C@H]1C(=O)N[C@@H](Cc1ccc(O)cc1)C(N)=O)[C@@H](C)O [AcFEWTPaYWQJY--NH2] (Ac-FEWTP[dA]YWQ[Aze]Y-NH2) | – | ≤ 100000 nM | ≤ 500 nM | –
6 | CC(=O)N[C@@H](Cc1ccccc1)C(=O)N[C@@H](CCC(=O)O)C(=O)N[C@@H](Cc1c[nH]c2ccccc12)C(=O)N[C@H](C(=O)N1CCC[C@H]1C(=O)N[C@H](C)C(=O)N[C@@H](Cc1ccc(O)cc1)C(=O)N[C@@H](Cc1ccc(O)cc1)C(=O)N[C@@H](CCC(N)=O)C(=O)N1CC[C@H]1C(=O)N[C@@H](Cc1ccc(O)cc1)C(N)=O)[C@@H](C)O [AcFEWTPaYYQJY--NH2] (Ac-FEWTP[dA]YYQ[Aze]Y-NH2) | – | ≤ 100000 nM | ≤ 500 nM | –
7 | CC(C)C[C@H](NC(=O)[C@@H]1CCCN1C(=O)[C@H](CC(C)C)NC(=O)[C@H](C)NC(=O)[C@H](Cc1ccc(O)cc1)NC(=O)[C@@H]1CCN1C(=O)[C@H](CCC(N)=O)NC(=O)[C@H](Cc1ccc(O)cc1)NC(=O)[C@H](Cc1c[nH]c2ccccc12)NC(=O)CNC(=O)[C@@H]1CCCN1C(=O)[C@@H](NC(=O)[C@H](Cc1c[nH]c2ccccc12)NC(=O)[C@H](CCC(=O)O)NC(=O)[C@@H](N)Cc1ccccc1)[C@@H](C)O)C(=O)O [FEWTPGWYQJYALPL] (H-FEWTPGWYQ[Aze]YALPL-OH) | – | – | ≤ 500 nM | –
8 | C[C@@H](O)[C@H](NC(=O)[C@H](Cc1c[nH]c2ccccc12)NC(=O)[C@H](CCC(=O)O)NC(=O)[C@@H](N)Cc1ccccc1)C(=O)N1CCC[C@H]1C(=O)NCC(=O)N[C@@H](Cc1ccc(O)cc1)C(=O)N[C@@H](Cc1c[nH]c2ccccc12)C(=O)N[C@@H](CCC(N)=O)C(=O)N1CC[C@H]1C(=O)N[C@@H](Cc1ccc(O)cc1)C(N)=O [FEWTPGYWQJY--NH2] (H-FEWTPGYWQ[Aze]Y-NH2) | ≤ 500 nM | ≤ 100000 nM | – | –
9 | CC(C)C[C@H](NC(=O)[C@@H]1CCCN1C(=O)[C@H](CC(C)C)NC(=O)[C@H](C)NC(=O)[C@H](Cc1ccc(O)cc1)NC(=O)[C@@H]1CCN1C(=O)[C@H](CCC(N)=O)NC(=O)[C@H](Cc1c[nH]c2ccccc12)NC(=O)[C@H](Cc1ccc(O)cc1)NC(=O)CNC(=O)[C@@H]1CCCN1C(=O)[C@@H](NC(=O)[C@H](Cc1c[nH]c2ccccc12)NC(=O)[C@H](CCC(=O)O)NC(=O)[C@@H](N)Cc1ccccc1)[C@@H](C)O)C(=O)O [FEWTPGYWQJYALPL] (H-FEWTPGYWQ[Aze]YALPL-OH) | – | ≤ 500 nM | ≤ 500 nM | –
10 | CC(C)C[C@H](NC(=O)[C@@H]1CCCN1C(=O)[C@H](CC(C)C)NC(=O)[C@H](C)NC(=O)[C@H](Cc1ccc(O)cc1)NC(=O)[C@@H]1CCN1C(=O)[C@H](CCC(N)=O)NC(=O)[C@H](Cc1ccc(O)cc1)NC(=O)[C@H](Cc1ccc(O)cc1)NC(=O)CNC(=O)[C@@H]1CCCN1C(=O)[C@@H](NC(=O)[C@H](Cc1c[nH]c2ccccc12)NC(=O)[C@H](CCC(=O)O)NC(=O)[C@@H](N)Cc1ccccc1)[C@@H](C)O)C(=O)O [FEWTPGYYQJYALPL] (H-FEWTPGYYQ[Aze]YALPL-OH) | – | ≤ 500 nM | ≤ 500 nM | –
11 | CC(C)C[C@H](NC(=O)[C@@H]1CCCN1C(=O)[C@H](CC(C)C)NC(=O)[C@H](C)NC(=O)[C@H](Cc1ccc(O)cc1)NC(=O)[C@@H]1CCN1C(=O)[C@H](CCC(N)=O)NC(=O)[C@H](Cc1c[nH]c2ccccc12)NC(=O)[C@H](Cc1ccc(O)cc1)NC(=O)[C@@H](NC(=O)[C@H](Cc1ccccc1)NC(=O)[C@@H](N)[C@@H](C)O)C(C)C)C(=O)O [TFVYWQJYALPL] (H-TFVYWQ[Aze]YALPL-OH) | ≤ 100000 nM | > 100000 nM | – | –
12 | CC(C)C[C@H](NC(=O)[C@@H]1CCCN1C(=O)[C@H](CC(C)C)NC(=O)[C@H](C)NC(=O)[C@H](Cc1ccc(O)cc1)NC(=O)[C@@H]1CCCN1C(=O)[C@H](CCC(N)=O)NC(=O)[C@H](Cc1c[nH]c2ccccc12)NC(=O)[C@H](Cc1ccc(O)cc1)NC(=O)[C@H](NC(=O)[C@H](Cc1ccccc1)NC(=O)[C@@H](N)[C@@H](C)O)C(C)C)C(=O)O [TFvYWQPYALPL] (H-TF[dV]YWQPYALPL-OH) | – | > 100000 nM | – | –
13 | CC(C)C[C@H](NC(=O)[C@@H]1CCCN1C(=O)[C@H](CC(C)C)NC(=O)[C@H](C)NC(=O)[C@H](Cc1ccc(O)cc1)NC(=O)[C@@H]1CCN1C(=O)[C@H](CCC(N)=O)NC(=O)[C@H](Cc1ccc(OP(=O)(O)O)cc1)NC(=O)[C@H](Cc1cccc2ccccc12)NC(=O)[C@@H](N)Cc1ccc(OP(=O)(O)O)cc1)C(=O)O [pY(1Nap)pYQJYALPL] (H-[pY][1Nal][pY]Q[Aze]YALPL-OH) | – | ≤ 500 nM | – | < 500 nM
14 | DGYDRWRQSGERYWQPYALPL | ≤ 500 nM | ≤ 500 nM | – | –
15 | ETPFTWEESNAYYWQPYALPL | ≤ 500 nM | ≤ 500 nM | – | –
16 | FEWTPGYWQPYALPLSD-NH2 [FEWTPGYWQPYALPLSD--NH2] | – | ≤ 500 nM | – | –
17 | YIPFTWEESNAYYWQPYALPL | – | ≤ 500 nM | – | –
